Columns and labels:
HT-29 cells [1] = test: TSZ-induced necroptotic cell death in HT-29 cells (MTT assay); assay type: cell-based
Method: Cell viability was determined using tetrazolium dye colorimetric tests (the MTT assay) read at 570 nm. PI staining was quantified using propidium iodide (Cat. No. 51-66211E, BD Biosciences). Lactate dehydrogenase (LDH) leakage was quantified using the […] according to the manufacturer’s instructions. The LDH absorbance was read at 490 nm, and the mean ± STDEV of duplicates is presented.
HT-29 cells were pretreated with four tested inhibitors for 2 h and then treated with TSZ (6 h for immunoblotting, 24 h for cell death assay). Cell lysates were analyzed by immunoblotting, and cell viability was analyzed by MTT assay or phase-contrast microscopy. The results are presented as the means ± SEM. *P < 0.05, **P < 0.01, ***P < 0.001. b Protection of necroptosis by HS-1371 treatment is similar with dabrafenib, which abolished downstream events. HT-29 cells were pretreated with various necroptosis inhibitors and HS-1371 before TSZ treatment. Cell lysates were analyzed by immunoblotting, and cell viability was analyzed by MTT assay (left panel). Cells were stained with phospho-MLKL antibody and analyzed by confocal fluorescence microscopy (middle panel), and cell death was further analyzed by FACS analysis after PI staining (right panel). c HS-1371 protects cells from TNF-induced necroptosis in a dose-dependent manner. HT-29 cells were pretreated with indicated concentrations of HS-1371 and then treated with TSZ (6 h for immunoblotting, 24 h for cell death assay). Cell lysates were analyzed by immunoblotting, and cell viability was analyzed by MTT assay or phase-contrast microscopy. The results are presented as means ± SEM. *P < 0.05, **P < 0.01, ***P < 0.001 TEXT PRINTED IN THE PICTURE: (b) TSZ: 20.7 | (b) TSZ + Nec-1: 5.8 | (b) TSZ + DAB: 5.5 | (b) TSZ + 1371: 6.8 DOUBTS OF THE COPYIST ABOUT THIS PICTURE: Panel b, flow cytometry plots: the red gate numbers are printed without a measure or unit, so none is given / Panel b: the 'Untreated' control plot prints 7.7; left out because it is not a substance

HT-29 cells [2] = test: TNF-induced apoptosis in HT-29 cells (TC or TS); assay type: cell-based, human; conditions: HT-29, 5 μM pretreated 2 h
Method: HT-29 cells expressing RIP3 shRNA, MLKL shRNA, or non-silencing control were analyzed by western blotting (upper panel), and these cells were treated with TSZ (6 h for immunoblotting, 24 h for cell death assay). Cell lysates were analyzed by immunoblotting (middle panel), and cell viability was analyzed by MTT assay (bottom panel). The results are presented as means ± SEM. *P < 0.05, **P < 0.01, ***P < 0.001. b HS-1371 protected cells not only from TNF-induced necroptosis but also from TRAIL-induced necroptosis. HT-29 cells were pretreated with indicated concentrations of HS-1371 and then treated with TRAIL + Smac + zVAD (6 h for immunoblotting, 24 h for cell death assay). Cell lysates were analyzed by immunoblotting, and cell viability was analyzed by MTT assay or phase-contrast microscopy. The results are presented as means ± SEM. *P < 0.05, **P < 0.01, ***P < 0.001. c, d HS-1371 had no effect on TNF-induced apoptosis. HT-29 cells were pretreated with HS-1371 (5 μM) for 2 h and then treated with TC or TS (TNF + either cycloheximide or SMAC mimetic, hereafter referred to as TC or TS, 6 h for immunoblotting, 24 h (TC) or 36 h (TS) for cell death assay). Cell lysates were analyzed by immunoblotting, and cell viability was analyzed by MTT assay (TC) or CellTiter-Glo Luminescent Cell Viability Assay Kit (TS). The results are presented as means ± SEM. *P < 0.05, **P < 0.01, ***P < 0.001

[3] = tested on: RAW264.7 macrophage cells; test: LPS plus zVAD-induced cytokine expression in RAW264.7 cells (real-time PCR); assay type: cell-based, mouse; conditions: RAW264.7, LPS + zVAD, 5 and 10 μM, pre 1 h or post 2 h
Method: Total RNA was extracted using the TRIzol reagent (Life Technologies) according to the manufacturer’s instructions. Total RNA (1 μg) from each sample was converted to cDNA using MMLV reverse transcriptase (MGmed, Seoul, Korea). Equal amounts of cDNA product were used in reverse transcription-PCR conducted using the GoTaq® Green Master Mix (Promega). Real-time PCR amplification was performed using iQ™ SYBR® Green Supermix (Bio-rad). […]
HeLa, L929, and MEF cells were pretreated with HS-1371 (5 μM) for 2 h, and treated with TNF (30 ng/mL) for indicated time points. Cell lysates were analyzed by immunoblotting. […]
(a) RAW264.7 cells were treated with LPS (1 μg/mL) for indicated time points and cell lysates were analyzed by immunoblotting.
(b) RAW264.7 cells were pretreated with zVAD (20 μM) for 1 h and then treated with LPS (1 μg/mL) for indicated time points. Cell lysates were analyzed by immunoblotting.
(c) IL-6, TNF-α, and IL-1β expression levels were determined by RT-PCR analysis. […]
(d) RAW264.7 cells were pretreated with zVAD (20 μM) and HS-1371 (5 μM) for 1 h and then treated with LPS (1 μg/mL) for 4 h. Cell lysates were analyzed by immunoblotting (left panel).
IL-1β and IL-6 expression levels were determined by real-time PCR analysis. […]
(e) IL-1β, IL-6 and TNF-α expression levels were determined by real -time PCR analysis. […]

## Cc1ccc(Oc2ccnc3cc(-c4cnn(C5CCNCC5)c4)ccc23)cc1 [HS-1371, 7-(1-(Piperidin-4-yl)-1H-pyrazol-4-yl)-4-(p-tolyloxy)quinoline]
HT-29 cells [1]; HT-29, 5 μM, pretreated 1 h or applied 1 or 2 h after induction
  TNF-induced cell death, pre-treatment and post-treatment: completely inhibited
HT-29 cells [1]; HT-29, indicated concentrations, TSZ 24 h
  viability in response to TSZ-mediated necroptosis, dose-dependent: effectively restored
HT-29 cells [1]; HT-29, post-treatment until approximately 5 h after TSZ
  cellular cytotoxicity, post-treatment after TSZ: significantly reduced
HT-29 cells [1]; HT-29, pretreated 2 h, TSZ 24 h
  rescue from TSZ-induced cell death: rescued
HT-29 cells [2]; TC 24 h, MTT
  apoptosis induced by TNF plus CHX: did not inhibit
HT-29 cells [2]; TS 36 h, CellTiter-Glo
  apoptosis induced by TNF plus Smac mimetic: did not inhibit
[3]
  IL-1β, IL-6 and TNF-α expression: reduced
